Results taken from article PMC11940309, “Endocrine-Disrupting Activities of Flavones on Steroid Receptors: Structural Requirements and Synthesis of Novel Flavone with Improved Estrogenic Activity” (Biomedicines, 2025).
Read-outs that look alike come from different tables or passages of the source.

Target: T1, glucocorticoid receptor (GR) (Rattus norvegicus, UniProt P06536)
T1 construct: host or cells: T47D (A1-2)
T1 sequence (P06536 1-795): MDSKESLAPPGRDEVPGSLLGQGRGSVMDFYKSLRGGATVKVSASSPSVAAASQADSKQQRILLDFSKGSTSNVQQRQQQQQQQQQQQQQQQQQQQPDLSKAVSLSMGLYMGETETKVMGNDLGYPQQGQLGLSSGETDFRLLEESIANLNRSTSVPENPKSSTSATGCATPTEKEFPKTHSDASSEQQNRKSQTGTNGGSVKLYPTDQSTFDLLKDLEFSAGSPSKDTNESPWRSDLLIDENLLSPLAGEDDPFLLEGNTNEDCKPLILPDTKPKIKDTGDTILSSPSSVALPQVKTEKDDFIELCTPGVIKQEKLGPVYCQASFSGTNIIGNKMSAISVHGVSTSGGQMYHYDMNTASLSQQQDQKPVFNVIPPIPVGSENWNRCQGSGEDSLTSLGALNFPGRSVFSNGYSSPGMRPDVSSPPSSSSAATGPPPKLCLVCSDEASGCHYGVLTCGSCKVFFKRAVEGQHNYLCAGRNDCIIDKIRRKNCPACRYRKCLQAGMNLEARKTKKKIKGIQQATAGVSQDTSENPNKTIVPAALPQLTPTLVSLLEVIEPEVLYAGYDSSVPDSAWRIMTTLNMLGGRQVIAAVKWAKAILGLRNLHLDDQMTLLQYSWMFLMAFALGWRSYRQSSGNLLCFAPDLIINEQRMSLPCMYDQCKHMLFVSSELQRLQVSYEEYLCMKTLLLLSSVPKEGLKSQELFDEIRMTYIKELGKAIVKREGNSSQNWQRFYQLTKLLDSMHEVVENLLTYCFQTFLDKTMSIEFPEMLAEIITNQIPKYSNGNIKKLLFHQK
Assay: GR-mediated induction of transcription by dexamethasone in T47D (A1-2) cells (luciferase reporter and endogenous alkaline phosphatase)
Type: cell-based, human
Details: dexamethasone 1.0 nM; for inhibition at 4 µM / inhibition at 8 µM: T47D
From the text: The engineered T47D breast cancer cell lines employed for the assessment of flavonoid activity on glucocorticoid receptor (GR) and progesterone receptor (PR) signaling permitted the facile quantitation transcription of both an endogenous gene and a stably integrated reporter gene. […] The T47D K5pLuc cell line responds to progestins via induction of a stably integrated cytokeratin 5-luciferase reporter gene. […] For assessment of the effect of the test compounds on androgen receptor (AR) signaling, we used the HeLa13 cell line engineered to stably express human AR and a PSA-luciferase reporter gene containing a 4× multimerized PSA upstream enhancer ARE1 linked to the E4 TATA box and luciferase gene.
For assessment of the effect of flavones on glucocorticoid receptors, T47D (A1-2) cells were maintained in Minimal Essential Medium, 10% Fetal Bovine Serum (FBS), 0.2 mg/mL G418, penicillin (100 U/mL), and streptomycin (100 μg/mL). For experiments, medium was removed, and cultures rinsed with Phosphate-Buffered Saline (PBS) + 1.0 mM EDTA (PBSE), detached with trypsin, pelleted, and resuspended in medium to a concentration of 500,000 cells/mL. Aliquots of cell suspension, 100 microliters/well, were transferred into a 96-well, white, flat-bottomed plate and allowed to attach for 24 h. The following day, each well was treated with a 50 microliter aliquot of a test compound diluted in medium. Controls received medium containing DMSO diluted in the same way. For hormone treatment, dexamethasone was diluted in medium and added as 50 microliter aliquots so that the final volume in each well was 200 microliters. The final concentration of dexamethasone was 1.0 nM. Controls received medium without hormone. Hormone treatment was for 20 h at which time cells were harvested for assay of alkaline phosphatase and luciferase.
For all cell lines, cell harvesting and the luminescence assay for alkaline phosphatase and/or luciferase were performed as previously described in detail. Each condition was performed in quadruplicate. […] Percent inhibition is 100 minus the percent induction.

[1] = 4 µM, AP (alkaline phosphatase), read-out: % Inhibition of GR Induction
[2] = 4 µM, LUC (luciferase), read-out: % Inhibition of GR Induction
[3] = 8 µM, AP (alkaline phosphatase), read-out: % Inhibition of GR Induction
[4] = 8 µM, LUC (luciferase), read-out: % Inhibition of GR Induction
[5] = read-out: % Inhibition of GR Induction, 4 µM, AP (alkaline phosphatase)
[6] = read-out: % Inhibition of GR Induction, 4 µM, LUC (luciferase)
[7] = read-out: % Inhibition of GR Induction, 8 µM, AP (alkaline phosphatase)
[8] = read-out: % Inhibition of GR Induction, 8 µM, LUC (luciferase)

Row | SMILES | inhibition at 4 µM [1] [%] | inhibition at 4 µM [2] [%] | inhibition at 8 µM [3] [%] | inhibition at 8 µM [4] [%] | also measured
1 | O=c1cc(-c2ccc(O)c(O)c2)oc2ccccc12 [3′,4′-dihydroxyflavone] | -15 | -2 | 38 | -6 | 
2 | O=c1cc(-c2ccc(O)cc2)oc2ccccc12 [4′-hydroxyflavone] | 49 | -43 | 49 | -49 | 
3 | O=c1cc(-c2ccc(O)c(O)c2)oc2cccc(O)c12 [5,3′,4′-trihydroxyflavone] |  |  |  |  | inhibition at 4 µM [5]: 27%; inhibition at 4 µM [6]: -16%; inhibition at 8 µM [7]: 40%; inhibition at 8 µM [8]: -24%
4 | O=c1cc(-c2ccc(O)cc2)oc2cccc(O)c12 [5,4′-dihydroxyflavone] | 34 | 13 | 33 | 13 | 
5 | O=c1cc(-c2cc(O)c(O)c(O)c2)oc2cc(O)cc(O)c12 [5,7,3′4′,5′-pentahydroxyflavone] |  |  |  |  | % Inhibition of GR Induction (4 µM, AP (alkaline phosphatase)): −19%; % Inhibition of GR Induction (4 µM, LUC (luciferase)): 5%; % Inhibition of GR Induction (8 µM, AP (alkaline phosphatase)): 46%; % Inhibition of GR Induction (8 µM, LUC (luciferase)): −25%
6 | O=C1CC(c2ccc(O)c(O)c2)Oc2cc(O)cc(O)c21 (centres unmarked) [5,7,3′,4′-tetrahydroxyflavanone] |  |  |  |  | inhibition at 4 µM [5]: 4%; inhibition at 4 µM [6]: 5%; inhibition at 8 µM [7]: -4%; inhibition at 8 µM [8]: 18%
7 | COc1ccc([C@@H]2CC(=O)c3c(O)cc(O)cc3O2)cc1O [5,7,3′-triOH, 4′methoxyflavanone] | 1 |  | 51 | 15 | 
8 | O=c1cc(-c2ccc(O)cc2)oc2cc(O)ccc12 [7,4′-dihydroxyflavone] |  |  |  |  | inhibition at 4 µM [5]: 47%; inhibition at 4 µM [6]: -92%; inhibition at 8 µM [7]: 64%; inhibition at 8 µM [8]: -38%

Second part, led by results:

Row | inhibition at 4 µM [1] [%] | inhibition at 4 µM [2] [%] | inhibition at 8 µM [3] [%] | inhibition at 8 µM [4] [%] | SMILES | also measured
9 | 33 | -8 | 55 | -3 | O=c1cc(-c2ccc(O)c(O)c2)oc2cc(O)cc(O)c12 [5,7,3′,4′-tetrahydroxyflavone] | 
10 | 8 | 15 | 7 | 19 | O=C1CC(c2ccc(O)cc2)Oc2cc(O)cc(O)c21 (centres unmarked) [5,7,4′-trihydroxyflavanone] | 
11 | 22 | -7 |  |  | O=c1c(-c2ccc(O)cc2)coc2cc(O)cc(O)c12 [5,7,4′-trihydroxyisoflavone] | 
12 | 22 | 0 | 38 | -6 | O=c1cc(-c2ccccc2)oc2cc(O)cc(O)c12 [5,7-dihydroxyflavone] | 
13 | 26 | -44 | 39 | -82 | O=c1cc(-c2ccc(O)cc2)oc2ccc(O)cc12 [6,4′-dihydroxyflavone] | 
14 | 21 | -117 | 36 | -87 | O=c1cc(-c2ccc(O)c(O)c2)oc2cc(O)ccc12 [7,3′,4′-trihydroxyflavone] | 
15 |  |  | 5 | -52 | O=c1c(-c2ccc(O)cc2)coc2cc(O)ccc12 [7,4′-dihydroxyisoflavone] | 
16 | 13 | 4 | 34 | -24 | O=c1cc(-c2ccccc2)oc2ccccc12 [flavone] | 
